Measured values: ChEMBL document CHEMBL6096698, “Discovery of a Selective and Orally Bioavailable RET Degrader with Effectiveness in Various Mutations” (J Med Chem, 2025)
Calls of active or inactive are those of the source. The calls are words filed in the database; no cut-off is given here.

Experiments:
[1] = tested on: BaF3; test: Antiproliferative activity against mouse BaF3 cells stably expressing KIF5B-RET G810R mutant incubated for 72 hrs by CCK8 assay; format: functional, cell-based; conditions: BaF3, 72 h
[2] = tested on: BaF3; test: Antiproliferative activity against mouse BaF3 cells stably expressing KIF5B-RET incubated for 72 hrs by CCK8 assay; format: functional, cell-based; conditions: BaF3, 72 h
[3] = tested on: BaF3; test: Antiproliferative activity against mouse BaF3 cells stably expressing KIF5B-RET G810C mutant incubated for 72 hrs by CCK8 assay; format: functional, cell-based; conditions: BaF3, 72 h
[4] = tested on: BaF3; test: Antiproliferative activity against mouse BaF3 cells stably expressing KIF5B-RET G810S mutant incubated for 72 hrs by CCK8 assay; format: functional, cell-based; conditions: BaF3, 72 h
[5] = tested on: BaF3; test: Antiproliferative activity against mouse BaF3 cells stably expressing KIF5B-RET V804M mutant incubated for 72 hrs by CCK8 assay; format: functional, cell-based; conditions: BaF3, 72 h
[6] = tested on: BaF3; test: PROTAC activity at VHL/KIF5B-RET (unknown origin) expressed in mouse BaF3 cells assessed as induction of RET degradation at 10 nM incubated for 24 hrs by immunoblot analysis relative to control; format: cell-based
[7] = tested on: BaF3; test: PROTAC activity at CRBN/KIF5B-RET (unknown origin) expressed in mouse BaF3 cells assessed as induction of RET degradation at 10 nM incubated for 24 hrs by immunoblot analysis; format: cell-based
[8] = biological target: Proto-oncogene tyrosine-protein kinase receptor Ret (Homo sapiens, UniProt P07949); test: Inhibition of RET (unknown origin) preincubated for 10 mins followed by substrate/ATP addition measured after 30 mins by HTRF assay
[9] = tested on: BaF3; test: PROTAC activity at CRBN/KIF5B-RET (unknown origin) expressed in mouse BaF3 cells assessed as induction of RET degradation at 10 nM incubated for 24 hrs by immunoblot analysis relative to control; format: cell-based
[10] = tested on: BaF3; test: Induction of degradation of KIF5B-RET (unknown origin) expressed in mouse BaF3 cells at 10 nM incubated for 24 hrs by immunoblot analysis relative to control; format: cell-based; conditions: Homo sapiens
[11] = tested on: BaF3; test: Antiproliferative activity against mouse BaF3 cells stably expressing CCDC6-RET incubated for 72 hrs by CCK8 assay; format: functional, cell-based; conditions: BaF3, 72 h
[12] = Induction of apoptosis in mouse BaF3 cells stably expressing KIF5B-RET G810C mutant assessed as necrotic cells at 100 nM incubated for 48 hrs by Annexin V-FITC/PI staining based flow cytometry (reference value: 0.94 %); format: functional
[13] = Induction of apoptosis in mouse BaF3 cells stably expressing KIF5B-RET G810C mutant assessed as late apoptotic cells at 100 nM incubated for 48 hrs by Annexin V-FITC/PI staining based flow cytometry (reference value: 5.99 %); format: functional
[14] = Induction of apoptosis in mouse BaF3 cells stably expressing KIF5B-RET G810C mutant assessed as early apoptotic cells at 100 nM incubated for 48 hrs by Annexin V-FITC/PI staining based flow cytometry (reference value: 0.86 %); format: functional
[15] = Induction of apoptosis in mouse BaF3 cells stably expressing KIF5B-RET G810C mutant assessed as viable cells at 100 nM incubated for 48 hrs by Annexin V-FITC/PI staining based flow cytometry (reference value: 92.21 %); format: functional; conditions: read-out: Activity
[16] = tested on: BaF3; test: Antiproliferative activity against mouse BaF3 cells stably expressing CCDC6-RET G810R mutant incubated for 72 hrs by CCK8 assay; format: functional, cell-based; conditions: BaF3, 72 h
[17] = tested on: BaF3; test: Antiproliferative activity against mouse BaF3 cells stably expressing CCDC6-RET G810C mutant incubated for 72 hrs by CCK8 assay; format: functional, cell-based; conditions: BaF3, 72 h
[18] = tested on: BaF3; test: Antiproliferative activity against mouse BaF3 cells stably expressing CCDC6-RET V804M mutant incubated for 72 hrs by CCK8 assay; format: functional, cell-based; conditions: BaF3, 72 h

Proto-oncogene tyrosine-protein kinase receptor Ret, sequence (P07949 whole entry): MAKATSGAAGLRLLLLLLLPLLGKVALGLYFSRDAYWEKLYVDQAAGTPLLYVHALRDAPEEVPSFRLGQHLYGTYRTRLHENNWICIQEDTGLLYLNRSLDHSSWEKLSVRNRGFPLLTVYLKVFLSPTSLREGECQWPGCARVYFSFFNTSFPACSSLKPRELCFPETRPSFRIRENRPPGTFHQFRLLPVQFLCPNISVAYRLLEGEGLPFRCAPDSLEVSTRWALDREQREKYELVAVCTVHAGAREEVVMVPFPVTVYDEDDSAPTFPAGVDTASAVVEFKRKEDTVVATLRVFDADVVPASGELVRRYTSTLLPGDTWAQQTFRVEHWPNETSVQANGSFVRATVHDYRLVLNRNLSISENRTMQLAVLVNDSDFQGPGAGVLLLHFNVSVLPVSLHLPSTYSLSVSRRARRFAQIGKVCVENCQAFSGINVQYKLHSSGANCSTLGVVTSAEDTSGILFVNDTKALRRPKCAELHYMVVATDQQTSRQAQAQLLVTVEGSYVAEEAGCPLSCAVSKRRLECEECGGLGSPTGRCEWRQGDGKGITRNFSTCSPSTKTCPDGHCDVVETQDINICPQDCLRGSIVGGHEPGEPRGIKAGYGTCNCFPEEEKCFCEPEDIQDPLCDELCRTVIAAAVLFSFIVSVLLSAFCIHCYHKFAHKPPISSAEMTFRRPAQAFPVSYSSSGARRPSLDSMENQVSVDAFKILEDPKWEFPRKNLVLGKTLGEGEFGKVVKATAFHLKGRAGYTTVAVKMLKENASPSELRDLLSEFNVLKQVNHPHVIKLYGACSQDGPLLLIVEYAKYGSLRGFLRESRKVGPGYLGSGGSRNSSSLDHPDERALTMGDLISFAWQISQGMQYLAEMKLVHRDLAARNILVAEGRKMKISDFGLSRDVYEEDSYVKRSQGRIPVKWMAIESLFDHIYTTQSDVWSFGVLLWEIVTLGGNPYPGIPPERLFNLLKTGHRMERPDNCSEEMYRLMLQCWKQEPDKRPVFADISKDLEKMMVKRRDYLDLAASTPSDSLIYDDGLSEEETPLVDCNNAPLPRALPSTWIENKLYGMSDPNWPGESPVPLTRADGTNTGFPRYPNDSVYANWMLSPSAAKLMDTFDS

Row | SMILES | IC50 [1] [nM] | IC50 [2] [nM] | IC50 [3] [nM] | IC50 [4] [nM] | IC50 [5] [nM] | Activity [6] [%] | Activity [7] | IC50 [8] [nM] | Activity [9] [%] | Activity [10] [%] | IC50 [11] [nM] | Activity [12] [%] | Activity [13] [%] | Activity [14] [%] | viability at 0.1 µM [15] [%] | IC50 [16] [nM] | IC50 [17] [nM] | IC50 [18] [nM]
1 | COc1ccc(CN2C3CC2CN(c2ccc(-c4cc(N5CCN(CCC(=O)N[C@H](C(=O)N6C[C@H](O)C[C@H]6C(=O)N[C@@H](C)c6ccc(-c7scnc7C)cc6)C(C)(C)C)CC5)cn5ncc(C#N)c45)cn2)C3)cn1 | > 5000 | 86.8 | 254 | 723 | 126 | 29 | – | – | – | – | – | – | – | – | – | – | – | –
2 | COc1ccc(CN2C3CC2CN(c2ccc(-c4cc(N5CCN(CCCCCCC(=O)N[C@H](C(=O)N6C[C@H](O)C[C@H]6C(=O)N[C@@H](C)c6ccc(-c7scnc7C)cc6)C(C)(C)C)CC5)cn5ncc(C#N)c45)cn2)C3)cn1 | > 5000 | 40.2 | > 5000 | > 5000 | 983 | 23 | – | – | – | – | – | – | – | – | – | – | – | –
3 | COc1ccc(CN2C3CC2CN(c2ccc(-c4cc(N5CCC(N6CCN(CCCC#Cc7cccc8c7CN(C7CCC(=O)N(C)C7=O)C8=O)CC6)CC5)cn5ncc(C#N)c45)cn2)C3)cn1 (configuration not stated) | – | – | – | – | – | – | inactive | – | – | – | – | – | – | – | – | – | – | –
4 | COc1ccc(CN2C3CC2CN(c2ccc(-c4cc(N5CCC(N6CCN(C(=O)CCCNc7cccc8c7C(=O)N(C7CCC(=O)NC7=O)C8=O)CC6)CC5)cn5ncc(C#N)c45)cn2)C3)cn1 (configuration not stated) | 513 | 2.5 | 149 | 76.1 | 11.3 | – | – | 0.276 | 62 | – | – | – | – | – | – | – | – | –
5 | COc1ccc(CN2C3CC2CN(c2ccc(-c4cc(N5CCN(C(=O)CCCCCCC(=O)N[C@H](C(=O)N6C[C@H](O)C[C@H]6C(=O)N[C@@H](C)c6ccc(-c7scnc7C)cc6)C(C)(C)C)CC5)cn5ncc(C#N)c45)cn2)C3)cn1 | > 5000 | 177 | > 5000 | > 5000 | 372 | 17 | – | – | – | – | – | – | – | – | – | – | – | –
6 | COc1ccc(CN2C3CC2CN(c2ccc(-c4cc(N5CCN(CCCCC(=O)N[C@H](C(=O)N6C[C@H](O)C[C@H]6C(=O)N[C@@H](C)c6ccc(-c7scnc7C)cc6)C(C)(C)C)CC5)cn5ncc(C#N)c45)cn2)C3)cn1 | > 5000 | 229 | 852 | > 5000 | 279 | 15 | – | – | – | – | – | – | – | – | – | – | – | –
7 | COc1ccc(CN2C3CC2CN(c2ccc(-c4cc(N5CCC(N6CCN(C(=O)CCCCCNc7cccc8c7C(=O)N(C7CCC(=O)NC7=O)C8=O)CC6)CC5)cn5ncc(C#N)c45)cn2)C3)cn1 (configuration not stated) | 376 | 1.8 | 50.4 | 53.6 | 5.2 | – | – | 0.329 | 72 | – | – | – | – | – | – | – | – | –
8 | COc1ccc(CN2C3CC2CN(c2ccc(-c4cc(N5CCN(CC6CN(c7ccc8c(c7)C(=O)N(C7CCC(=O)NC7=O)C8=O)C6)CC5)cn5ncc(C#N)c45)cn2)C3)cn1 (configuration not stated) | 1030 | 1.9 | 145 | 35.7 | 11.5 | – | – | 0.227 | 72 | – | – | – | – | – | – | – | – | –
9 | COc1ccc(CN2C3CC2CN(c2ccc(-c4cc(N5CCN(C(=O)CCCCCCCNc6cccc7c6C(=O)N(C6CCC(=O)NC6=O)C7=O)CC5)cn5ncc(C#N)c45)cn2)C3)cn1 (configuration not stated) | 453 | 1.6 | 126 | 62.1 | 13.7 | – | – | 0.203 | 73 | – | – | – | – | – | – | – | – | –
10 | COc1ccc(CN2C3CC2CN(c2ccc(-c4cc(N5CCN(C(=O)CCCCC(=O)N[C@H](C(=O)N6C[C@H](O)C[C@H]6C(=O)N[C@@H](C)c6ccc(-c7scnc7C)cc6)C(C)(C)C)CC5)cn5ncc(C#N)c45)cn2)C3)cn1 | > 5000 | 309 | > 5000 | > 5000 | > 5000 | 10 | – | – | – | – | – | – | – | – | – | – | – | –
11 | COc1ccc(CN2C3CC2CN(c2ccc(-c4cc(N5CCN(C(=O)CCCCCCCCCCC(=O)N[C@H](C(=O)N6C[C@H](O)C[C@H]6C(=O)N[C@@H](C)c6ccc(-c7scnc7C)cc6)C(C)(C)C)CC5)cn5ncc(C#N)c45)cn2)C3)cn1 | 1330 | 35.4 | 818 | 552 | 85.3 | 24 | – | – | – | – | – | – | – | – | – | – | – | –
12 | COc1ccc(CN2C3CC2CN(c2ccc(-c4cc(N5CCN(C6CN(c7ccc8c(c7)C(=O)N(C7CCC(=O)NC7=O)C8=O)C6)CC5)cn5ncc(C#N)c45)cn2)C3)cn1 (configuration not stated) | 1110 | 2.8 | 322 | 52.6 | 8.1 | – | – | 0.215 | 71 | – | – | – | – | – | – | – | – | –
13 | COc1ccc(CN2C3CC2CN(c2ccc(-c4cc(OCC(C)(C)O)cn5ncc(C#N)c45)cn2)C3)cn1 [SELPERCATINIB] | 690 | 7.7 | 380 | 95.2 | 16.5 | – | – | – | – | 0 | 4.2 | 1.63 | 6.67 | 1.04 | 90.7 | 365 | 626 | 12.2
14 | COc1ccc(CN2C3CC2CN(c2ccc(-c4cc(N5CCC(N6CCN(C(=O)CCCCCNc7ccc8c(c7)C(=O)N(C7CCC(=O)NC7=O)C8=O)CC6)CC5)cn5ncc(C#N)c45)cn2)C3)cn1 (configuration not stated) | 552 | 2.9 | 182 | 78.3 | 13.1 | – | – | 0.391 | 61 | – | – | – | – | – | – | – | – | –
15 | COc1ccc(CN2C3CC2CN(c2ccc(-c4cc(N5CCN(CCCCCCCCC(=O)N[C@H](C(=O)N6C[C@H](O)C[C@H]6C(=O)N[C@@H](C)c6ccc(-c7scnc7C)cc6)C(C)(C)C)CC5)cn5ncc(C#N)c45)cn2)C3)cn1 | 1880 | 14.2 | 522 | 674 | 108 | 38 | – | – | – | – | – | – | – | – | – | – | – | –
16 | COc1ccc(CN2C3CC2CN(c2ccc(-c4cc(N5CCNCC5)cn5ncc(C#N)c45)cn2)C3)cn1 | 770 | 5.6 | 107 | 98.6 | 36.1 | – | – | – | – | 0 | – | – | – | – | – | – | – | –
17 | COc1ccc(CN2C3CC2CN(c2ccc(-c4cc(N5CCN(C(=O)CCCCCCCCC(=O)N[C@H](C(=O)N6C[C@H](O)C[C@H]6C(=O)N[C@@H](C)c6ccc(-c7scnc7C)cc6)C(C)(C)C)CC5)cn5ncc(C#N)c45)cn2)C3)cn1 | > 5000 | 12.3 | 410 | 216 | 36.5 | 39 | – | – | – | – | – | – | – | – | – | – | – | –
18 | COc1ccc(CN2C3CC2CN(c2ccc(-c4cc(N5CCC(N6CCNCC6)CC5)cn5ncc(C#N)c45)cn2)C3)cn1 | 724 | 4.3 | 156 | 113 | 42.9 | – | – | – | – | 0 | – | – | – | – | – | – | – | –
